SMILES strings stand for the structures. Where two headings read alike, the source gives them in different places. Non-standard residues stand in square brackets, D forms with d. Residues, ends and D or L forms follow the SMILES beside them. Groups on a side chain read outwards from the residue. *: point of attachment. X1 = O=C(O)CCCCCCCCCCCCCCCCCCC(=O)NC[C@H]1CC[C@H](C(=O)N[C@@H](CCC(=O)NCCOCCOCC(=O)NCCOCCOCC(=O)NCCCC[C@H](NC(=O)COCCOCCNC(=O)COCCOCCNC(=O)CC[C@H](NC(=O)[C@H]2CC[C@H](CNC(=O)CCCCCCCCCCCCCCCCCCC(=O)O)CC2)C(=O)O)C(=O)*)C(=O)O)CC1; Desaminohistidyl = O=C(CCc1c[nH]cn1)*; AEEA = NCCOCCOCC(=O)O; Aib = CC(C)(N)C(=O)O

This data set is described as follows: Pharmacokinetic study in minipigs (i.v.). The note with it: male, Göttingen, minipig, in vivo, iv. Here is the method: The derivatives of Examples 12, 14, and 15 were dosed 2 nmol/kg. The derivatives of Examples 1 and 2 were dosed 15 nmol/kg.
The mark [1] stands for this setting: minipigs, i.v., 5 nmol/kg, harmonic mean, read-out: Terminal half-live (converted).

`CCCCCCCCCCCC(=O)NCCOCCOCC(=O)NCCCC[C@H](NC(=O)COCCOCCNC(=O)CCCCCCCCCCC)C(=O)NCCOCCOCC(=O)NCCCC[C@H](NC(=O)[C@H](CCCNC(=N)N)NC(=O)C(C)(C)NC(=O)[C@H](CCCCN)NC(=O)[C@@H](NC(=O)[C@H](CC(C)C)NC(=O)[C@H](Cc1c[nH]c2ccccc12)NC(=O)[C@H](C)NC(=O)[C@@H](NC(=O)[C@H](Cc1ccccc1)NC(=O)[C@H](CCC(=O)O)NC(=O)[C@H](CCCCN)NC(=O)[C@H](C)NC(=O)[C@H](C)NC(=O)[C@H](CCC(N)=O)NC(=O)C(C)(C)NC(=O)[C@H](CCC(=O)O)NC(=O)[C@H](CC(C)C)NC(=O)[C@H](Cc1ccc(O)cc1)NC(=O)[C@H](CO)NC(=O)[C@H](CO)NC(=O)[C@@H](NC(=O)[C@H](CC(=O)O)NC(=O)[C@H](CO)NC(=O)[C@@H](NC(=O)[C@H](Cc1ccccc1)NC(=O)[C@@H](NC(=O)CNC(=O)[C@H](CCC(=O)O)NC(=O)C(C)(C)NC(=O)[C@@H](N)Cc1c[nH]cn1)[C@@H](C)O)[C@@H](C)O)C(C)C)[C@@H](C)CC)C(C)C)C(N)=O` [Comparative Example 1, N{Epsilon-37}-[2-[2-[2-[[(2S)-2,6-bis[[2-[2-[2-(dodecanoylamino)ethoxy]ethoxy]acetyl]amino]hexanoyl]amino]ethoxy]ethoxy]acetyl]-[Aib8,Aib22,Aib35,Lys37]-GLP-1-(7-37)-peptide Amide, reference compound] had a half-life of 3 h. The same measure, in the same setting: in the case of `CCCCCCCCCCCCCC(=O)NCCOCCOCC(=O)NCCCC[C@H](NC(=O)COCCOCCNC(=O)CCCCCCCCCCCCC)C(=O)NCCOCCOCC(=O)NCCCC[C@H](NC(=O)[C@H](CCCNC(=N)N)NC(=O)C(C)(C)NC(=O)[C@H](CCCCN)NC(=O)[C@@H](NC(=O)[C@H](CC(C)C)NC(=O)[C@H](Cc1c[nH]c2ccccc12)NC(=O)[C@H](C)NC(=O)[C@@H](NC(=O)[C@H](Cc1ccccc1)NC(=O)[C@H](CCC(=O)O)NC(=O)[C@H](CCCCN)NC(=O)[C@H](C)NC(=O)[C@H](C)NC(=O)[C@H](CCC(N)=O)NC(=O)C(C)(C)NC(=O)[C@H](CCC(=O)O)NC(=O)[C@H](CC(C)C)NC(=O)[C@H](Cc1ccc(O)cc1)NC(=O)[C@H](CO)NC(=O)[C@H](CO)NC(=O)[C@@H](NC(=O)[C@H](CC(=O)O)NC(=O)[C@H](CO)NC(=O)[C@@H](NC(=O)[C@H](Cc1ccccc1)NC(=O)[C@@H](NC(=O)CNC(=O)[C@H](CCC(=O)O)NC(=O)C(C)(C)NC(=O)[C@@H](N)Cc1c[nH]cn1)[C@@H](C)O)[C@@H](C)O)C(C)C)[C@@H](C)CC)C(C)C)C(N)=O` [Comparative Example 2, N{Epsilon-37}-[2-[2-[2-[[(2S)-2,6-bis[[2-[2-[2-(tetradecanoylamino)ethoxy]ethoxy]acetyl]amino]hexanoyl]amino]ethoxy]ethoxy]acetyl]-[Aib8,Aib22,Aib35,Lys37]-GLP-1-(7-37)-peptide Amide, reference compound] it was 3 h. Turning to `CC[C@H](C)[C@H](NC(=O)[C@H](Cc1ccccc1)NC(=O)[C@H](CCC(=O)O)NC(=O)[C@H](CCCNC(=N)N)NC(=O)[C@H](C)NC(=O)[C@H](C)NC(=O)[C@H](CCC(N)=O)NC(=O)[C@H](CCC(=O)O)NC(=O)[C@H](CCC(=O)O)NC(=O)[C@H](CC(C)C)NC(=O)[C@H](Cc1ccc(O)cc1)NC(=O)[C@H](CO)NC(=O)[C@H](CO)NC(=O)[C@@H](NC(=O)[C@H](CC(=O)O)NC(=O)[C@H](CO)NC(=O)[C@@H](NC(=O)[C@H](Cc1ccccc1)NC(=O)[C@@H](NC(=O)CNC(=O)[C@H](CCC(=O)O)NC(=O)C(C)(C)NC(=O)[C@@H](N)Cc1c[nH]cn1)[C@@H](C)O)[C@@H](C)O)C(C)C)C(=O)N[C@@H](C)C(=O)N[C@@H](Cc1c[nH]c2ccccc12)C(=O)N[C@@H](CC(C)C)C(=O)N[C@H](C(=O)N[C@@H](CCCNC(=N)N)C(=O)NCC(=O)N[C@@H](CCCNC(=N)N)C(=O)N[C@@H](CCCCNC(=O)COCCOCCNC(=O)COCCOCCNC(=O)[C@H](CCCCNC(=O)COCCOCCNC(=O)COCCOCCNC(=O)CC[C@H](NC(=O)[C@H]1CC[C@H](CNC(=O)CCCCCCCCCCCCCCCCCCC(=O)O)CC1)C(=O)O)NC(=O)COCCOCCNC(=O)COCCOCCNC(=O)CC[C@H](NC(=O)[C@H]1CC[C@H](CNC(=O)CCCCCCCCCCCCCCCCCCC(=O)O)CC1)C(=O)O)C(=O)O)C(C)C` [Example 2, N{Epsilon-37}-[2-[2-[2-[[2-[2-[2-[[(2S)-2,6-bis[[2-[2-[2-[[2-[2-[2-[[(4S)-4-carboxy-4-[[4-[(19-carboxynonadecanoylamino)methyl]cyclohexanecarbonyl]amino]butanoyl]amino]ethoxy]ethoxy]acetyl]amino]ethoxy]ethoxy]acetyl]amino]hexanoyl]amino]ethoxy]ethoxy]acetyl]amino]ethoxy]ethoxy]acetyl]-[Aib8,Glu22,Arg26,Arg34,Lys37]-GLP-1-(7-37)-peptide], the half-life (minipigs, i.v., 15 nmol/kg, harmonic mean, read-out: Terminal half-live (converted)) was 130 h. Take `CC[C@H](C)[C@H](NC(=O)[C@H](Cc1ccccc1)NC(=O)[C@H](CCC(=O)O)NC(=O)[C@H](CCCNC(=N)N)NC(=O)[C@H](C)NC(=O)[C@H](C)NC(=O)[C@H](CCC(N)=O)NC(=O)[C@H](CCC(=O)O)NC(=O)[C@H](CCC(=O)O)NC(=O)[C@H](CC(C)C)NC(=O)[C@H](Cc1ccc(O)cc1)NC(=O)[C@H](CO)NC(=O)[C@H](CO)NC(=O)[C@@H](NC(=O)[C@H](CC(=O)O)NC(=O)[C@H](CO)NC(=O)[C@@H](NC(=O)[C@H](Cc1ccccc1)NC(=O)[C@@H](NC(=O)CNC(=O)[C@H](CCC(=O)O)NC(=O)C(C)(C)NC(=O)CCc1cnc[nH]1)[C@@H](C)O)[C@@H](C)O)C(C)C)C(=O)N[C@@H](C)C(=O)N[C@@H](Cc1c[nH]c2ccccc12)C(=O)N[C@@H](CC(C)C)C(=O)N[C@H](C(=O)N[C@@H](CCCNC(=N)N)C(=O)NCC(=O)N[C@@H](CCCNC(=N)N)C(=O)NCC(=O)NCC(=O)N[C@@H](CCCCNC(=O)COCCOCCNC(=O)COCCOCCNC(=O)[C@H](CCCCNC(=O)COCCOCCNC(=O)COCCOCCNC(=O)CC[C@H](NC(=O)[C@H]1CC[C@H](CNC(=O)CCCCCCCCCCCCCCCCCCC(=O)O)CC1)C(=O)O)NC(=O)COCCOCCNC(=O)COCCOCCNC(=O)CC[C@H](NC(=O)[C@H]1CC[C@H](CNC(=O)CCCCCCCCCCCCCCCCCCC(=O)O)CC1)C(=O)O)C(=O)O)C(C)C` [Example 7, [Imp7,Aib8,Glu22,Arg26,Arg34]-GLP-1-(7-37)-peptidyl-Gly-N{Epsilon}[2-[2-[2-[[2-[2-[2-[[(2S)-2,6-bis[[2-[2-[2-[[2-[2-[2-[[(4S)-4-carboxy-4-[[4-[(19-carboxynonadecanoylamino)methyl]cyclohexanecarbonyl]amino]butanoyl]amino]ethoxy]ethoxy]acetyl]amino]ethoxy]ethoxy]acetyl]amino]hexanoyl]amino]ethoxy]ethoxy]acetyl]amino]ethoxy]ethoxy]acetyl]Lys] (Desaminohistidyl-[Aib]EGTFTSDVSSYLEEQAAREFIAWLVRGRGGK([AEEA-AEEA-X1])-OH; C-terminus assumed): the half-life under setting [1] was 134 h. Consider `CC[C@H](C)[C@H](NC(=O)[C@H](Cc1ccccc1)NC(=O)[C@H](CCC(=O)O)NC(=O)[C@H](CCCNC(=N)N)NC(=O)[C@H](C)NC(=O)[C@H](C)NC(=O)[C@H](CCC(N)=O)NC(=O)[C@H](CCC(=O)O)NC(=O)[C@H](CCC(=O)O)NC(=O)[C@H](CC(C)C)NC(=O)[C@H](Cc1ccc(O)cc1)NC(=O)[C@H](CO)NC(=O)[C@H](CO)NC(=O)[C@@H](NC(=O)[C@H](CC(=O)O)NC(=O)[C@H](CO)NC(=O)[C@@H](NC(=O)[C@H](Cc1ccccc1)NC(=O)[C@@H](NC(=O)CNC(=O)[C@H](CCC(=O)O)NC(=O)C(C)(C)NC(=O)[C@@H](N)Cc1c[nH]cn1)[C@@H](C)O)[C@@H](C)O)C(C)C)C(=O)N[C@@H](C)C(=O)N[C@@H](Cc1c[nH]c2ccccc12)C(=O)N[C@@H](CC(C)C)C(=O)N[C@H](C(=O)N[C@@H](CCCNC(=N)N)C(=O)NCC(=O)N[C@@H](CCCNC(=N)N)C(=O)N[C@@H](CCCCNC(=O)COCCOCCNC(=O)COCCOCCNC(=O)COCCOCCNC(=O)COCCOCCNC(=O)[C@H](CCCCNC(=O)CC[C@H](NC(=O)[C@H]1CC[C@H](CNC(=O)CCCCCCCCCCCCCCCCCCC(=O)O)CC1)C(=O)O)NC(=O)CC[C@H](NC(=O)[C@H]1CC[C@H](CNC(=O)CCCCCCCCCCCCCCCCCCC(=O)O)CC1)C(=O)O)C(=O)O)C(C)C` [Example 8, N{Epsilon-37}-[2-[2-[2-[[2-[2-[2-[[2-[2-[2-[[2-[2-[2-[[(2S)-2,6-bis[[(4S)-4-carboxy-4-[[4-[(19-carboxynonadecanoylamino)methyl]cyclohexanecarbonyl]amino]butanoyl]amino]hexanoyl]amino]ethoxy]ethoxy]acetyl]amino]ethoxy]ethoxy]acetyl]amino]ethoxy]ethoxy]acetyl]amino]ethoxy]ethoxy]acetyl]-[Aib8,Glu22,Arg26,Arg34,Lys37]-GLP-1-(7-37)-peptide], for which, under setting [1], the half-life is 145 h. As for `CC[C@H](C)[C@H](NC(=O)[C@H](Cc1ccccc1)NC(=O)[C@H](CCC(=O)O)NC(=O)[C@H](CCCNC(=N)N)NC(=O)[C@H](C)NC(=O)[C@H](C)NC(=O)[C@H](CCC(N)=O)NC(=O)[C@H](CCC(=O)O)NC(=O)[C@H](CCC(=O)O)NC(=O)[C@H](CC(C)C)NC(=O)[C@H](Cc1ccc(O)cc1)NC(=O)[C@H](CO)NC(=O)[C@H](CO)NC(=O)[C@@H](NC(=O)[C@H](CC(=O)O)NC(=O)[C@H](CO)NC(=O)[C@@H](NC(=O)[C@H](Cc1ccccc1)NC(=O)[C@@H](NC(=O)CNC(=O)[C@H](CCC(=O)O)NC(=O)C(C)(C)NC(=O)[C@@H](N)Cc1c[nH]cn1)[C@@H](C)O)[C@@H](C)O)C(C)C)C(=O)N[C@@H](C)C(=O)N[C@@H](Cc1c[nH]c2ccccc12)C(=O)N[C@@H](CC(C)C)C(=O)N[C@H](C(=O)N[C@@H](CCCNC(=N)N)C(=O)NCC(=O)N[C@@H](CCCNC(=N)N)C(=O)N[C@@H](CCCCNC(=O)COCCOCCNC(=O)COCCOCCNC(=O)COCCOCCNC(=O)COCCOCCNC(=O)COCCOCCNC(=O)COCCOCCNC(=O)[C@H](CCCCNC(=O)CC[C@H](NC(=O)[C@H]1CC[C@H](CNC(=O)CCCCCCCCCCCCCCCCCCC(=O)O)CC1)C(=O)O)NC(=O)CC[C@H](NC(=O)[C@H]1CC[C@H](CNC(=O)CCCCCCCCCCCCCCCCCCC(=O)O)CC1)C(=O)O)C(=O)O)C(C)C` [Example 12], for the setting “minipigs, i.v., 2 nmol/kg, harmonic mean, read-out: Terminal half-live (converted)”, the half-life is 142 h.
